In brackets after ≈: the same amount, converted by molar mass. *1 amine or outer side, *2 acyl side, *3 side chain or, on linkers, in order; H or OH if unused. Where a SMILES comes first, the peptide text is derived from it. Bridges are numbered along the chain shown (N, C = ends). [ ]: non-standard residue; d: D form. The star is where a group is joined. hTyr(3S-OH,4S-OH,3'-OSO3H) = N[C@H](C(=O)O)[C@H](O)[C@@H](O)c1ccc(O)c(OS(=O)(=O)O)c1; Orn(4R-OH,5R-OH) = O=C([C@H](C[C@@H](O)[C@@H](O)N[*:3])N[*:1])[*:2]; Pro(3S-OH,4S-Me) = C[C@H]1CN[C@H](C(=O)O)[C@H]1O; X1 = CCCCCOc1ccc(-c2cc(-c3ccc(C(=O)*)cc3)no2)cc1; Gln(3R-OH) = NC(=O)C[C@@H](O)[C@H](N)C(=O)O; Hyp = O=C(O)[C@@H]1C[C@@H](O)CN1
Tests used:
[1] = tested on: Candida tropicalis; assay: Inhibition of Candida tropicalis ATCC 750 chitin synthase using […] as substrate at 300 ug/ml incubated for 1 hr by absorbance based assay relative to control; conditions: dose 300.0 µg/ml
[2] = tested on: Candida albicans; assay: Antifungal activity against Candida albicans ATCC 76615 assessed as fungal growth inhibition incubated for 24 hrs by two-fold serial dilution method; format: functional
[3] = tested on: Aspergillus flavus; assay: Antifungal activity against Aspergillus flavus ATCC 16870 assessed as fungal growth inhibition incubated for 24 hrs by two-fold serial dilution method; format: functional
[4] = tested on: Aspergillus fumigatus; assay: Antifungal activity against Aspergillus fumigatus GIMCC 3.19 assessed as fungal growth inhibition incubated for 24 hrs by two-fold serial dilution method; format: functional
[5] = tested on: Cryptococcus neoformans; assay: Antifungal activity against Cryptococcus neoformans ATCC 32719 assessed as fungal growth inhibition incubated for 24 hrs by two-fold serial dilution method; format: functional
[6] = Inhibition of Candida tropicalis ATCC 750 chitin synthase using UDP-GlcNAc as substrate incubated for 1 hr by absorbance based assay
[7] = tested on: Candida albicans; assay: Antifungal activity against Fluconazole-resistant Candida albicans ATCC 76615R assessed as fungal growth inhibition; format: functional
[8] = tested on: Aspergillus flavus; assay: Antifungal activity against Fluconazole-resistant Aspergillus flavus ATCC 16870R assessed as fungal growth inhibition; format: functional
[9] = tested on: Aspergillus fumigatus; assay: Antifungal activity against Fluconazole-resistant Aspergillus fumigatus GIMCC 3.19R assessed as fungal growth inhibition; format: functional
[10] = tested on: Cryptococcus neoformans; assay: Antifungal activity against Fluconazole-resistant Cryptococcus neoformans ATCC 32719R assessed as fungal growth inhibition; format: functional
[11] = Cytotoxicity against human A549 cells assessed as cell viability at 4 ug/ml incubated for 24 hrs by CCK-8 assay relative to control; format: toxicity, cell-based; conditions: at 4 µg/mL, read-out: Activity
[12] = Cytotoxicity against human A549 cells assessed as cell viability at 8 ug/ml incubated for 24 hrs by CCK-8 assay relative to control; format: toxicity, cell-based; conditions: at 8 µg/mL, read-out: Activity
[13] = Cytotoxicity against human A549 cells assessed as cell viability at 16 ug/ml incubated for 24 hrs by CCK-8 assay relative to control; format: toxicity, cell-based; conditions: at 16 µg/mL, read-out: Activity
[14] = Cytotoxicity against human A549 cells assessed as cell viability at 32 ug/ml incubated for 24 hrs by CCK-8 assay relative to control; format: toxicity, cell-based; conditions: at 32 µg/mL, read-out: Activity
[15] = Cytotoxicity against human A549 cells assessed as cell viability at 64 ug/ml incubated for 24 hrs by CCK-8 assay relative to control; format: toxicity, cell-based; conditions: at 64 µg/mL, read-out: Activity
[16] = tested on: Aspergillus flavus; assay: Antifungal activity against Aspergillus flavus ATCC 16870 assessed as inhibition of cell wall synthesis incubated for 24 hrs in presence of sorbitol; format: functional
[17] = tested on: Candida albicans; assay: Antifungal activity against Candida albicans ATCC 76615 assessed as inhibition of cell wall synthesis incubated for 24 hrs in presence of sorbitol; format: functional
[18] = tested on: Aspergillus fumigatus; assay: Antifungal activity against Aspergillus fumigatus GIMCC 3.19 assessed as inhibition of cell wall synthesis incubated for 24 hrs in presence of sorbitol; format: functional
[19] = tested on: Cryptococcus neoformans; assay: Antifungal activity against Cryptococcus neoformans ATCC 32719 assessed as inhibition of cell wall synthesis incubated for 24 hrs in presence of sorbitol; format: functional
[20] = tested on: Candida albicans; assay: Antifungal activity against Candida albicans ATCC 76615 assessed as inhibition of cell wall synthesis incubated for 24 hrs in absence of sorbitol; format: functional
[21] = tested on: Aspergillus flavus; assay: Antifungal activity against Aspergillus flavus ATCC 16870 assessed as inhibition of cell wall synthesis incubated for 24 hrs in absence of sorbitol; format: functional
[22] = tested on: Aspergillus fumigatus; assay: Antifungal activity against Aspergillus fumigatus GIMCC 3.19 assessed as inhibition of cell wall synthesis incubated for 24 hrs in absence of sorbitol; format: functional
[23] = tested on: Cryptococcus neoformans; assay: Antifungal activity against Cryptococcus neoformans ATCC 32719 assessed as inhibition of cell wall synthesis incubated for 24 hrs in absence of sorbitol; format: functional
[24] = tested on: A549; assay: Cytotoxicity against human A549 cells assessed as cell viability incubated for 24 hrs at 128 ug/ml by CCK-8 assay relative to control; conditions: dose 128 µg/ml
[25] = tested on: Candida albicans; assay: Antifungal activity against Micafungin-resistant Candida albicans ATCC 76615R assessed as fungal growth inhibition; format: functional

SMILES	inhibition [1] [%]	MIC [2] [µg/mL]	MIC [3] [µg/mL]	MIC [4] [µg/mL]	MIC [5] [µg/mL]	IC50 [6] [µM]	other results
O=C(/C=C/C(=O)Nc1ccc2c(c1)C(=O)NC1(CCCC1)N2)Nc1ccc(Cl)cc1	43.1	256 (≈ 603 µM)	128 (≈ 301 µM)	128 (≈ 301 µM)	128 (≈ 301 µM)		
O=C(/C=C/C(=O)Nc1ccc2c(c1)C(=O)NC1(CCSC1)N2)Nc1cccc(Br)c1 (stereo not given)	67.5	32 (≈ 65.7 µM)	32 (≈ 65.7 µM)	64 (≈ 131 µM)	32 (≈ 65.7 µM)	153	
OC(Cn1cncn1)(Cn1cncn1)c1ccc(F)cc1F [FLUCONAZOLE]		2 (≈ 6.53 µM)	4 (≈ 13.1 µM)	8 (≈ 26.1 µM)	4 (≈ 13.1 µM)		MIC [7]: 256 µg/mL (≈ 836 µM); MIC [8]: 256 µg/mL (≈ 836 µM); MIC [9]: 256 µg/mL (≈ 836 µM); MIC [10]: 256 µg/mL (≈ 836 µM)
O=C(/C=C/C(=O)Nc1ccc2c(c1)C(=O)NC1(CCSC1)N2)Nc1ccccc1 (stereo not given)	44.2	128 (≈ 313 µM)	256 (≈ 627 µM)	128 (≈ 313 µM)	128 (≈ 313 µM)	1870	
O=C(/C=C/C(=O)Nc1ccc2c(c1)C(=O)NC1(CCCC1)N2)Nc1ccc(Br)cc1	56.4	128 (≈ 273 µM)	128 (≈ 273 µM)	128 (≈ 273 µM)	64 (≈ 136 µM)		
O=C(/C=C/C(=O)Nc1ccc2c(c1)C(=O)NC1(CCOC1)N2)Nc1ccc(F)c(Cl)c1 (stereo not given)	56.8	128 (≈ 288 µM)	64 (≈ 144 µM)	64 (≈ 144 µM)	128 (≈ 288 µM)		
O=C(/C=C/C(=O)Nc1ccccc1Cl)Nc1ccc2c(c1)C(=O)NC1(CCCC1)N2	38.7	128 (≈ 301 µM)	256 (≈ 603 µM)	256 (≈ 603 µM)	128 (≈ 301 µM)		
Cc1cccc(NC(=O)/C=C/C(=O)Nc2ccc3c(c2)C(=O)NC2(CCSC2)N3)c1 (stereo not given)	47.2	64 (≈ 151 µM)	128 (≈ 303 µM)	128 (≈ 303 µM)	64 (≈ 151 µM)	800	
O=C(/C=C/C(=O)Nc1ccc2c(c1)C(=O)NC1(CCOC1)N2)Nc1ccc(Cl)cc1 (stereo not given)	49.2	128 (≈ 300 µM)	128 (≈ 300 µM)	128 (≈ 300 µM)	128 (≈ 300 µM)		
NC(=O)OC[C@H](O)[C@@H](O)[C@H](N)C(=O)N[C@H](C(=O)O)[C@H]1O[C@@H](n2cc(CO)c(=O)[nH]c2=O)[C@H](O)[C@@H]1O [POLYOXIN B]	84.7	8 (≈ 15.8 µM)	16 (≈ 31.5 µM)	16 (≈ 31.5 µM)	16 (≈ 31.5 µM)	93.5	viability at 24 h, 4 ug/ml [11]: 99.3%; viability at 24 h, 8 ug/ml [12]: 98.7%; viability at 24 h, 16 ug/ml [13]: 97.9%; viability at 24 h, 32 ug/ml [14]: 92.7%; viability at 24 h, 64 ug/ml [15]: 91.2%; MIC [16]: 128 µg/mL; MIC [17]: 128 µg/mL; MIC [18]: 128 µg/mL; MIC [19]: 64 µg/mL; MIC [20]: 8 µg/mL (≈ 15.8 µM); MIC [21]: 16 µg/mL (≈ 31.5 µM); MIC [22]: 16 µg/mL (≈ 31.5 µM); MIC [23]: 16 µg/mL (≈ 31.5 µM); viability [24]: 84.3%
O=C(/C=C/C(=O)Nc1ccccc1F)Nc1ccc2c(c1)C(=O)NC1(CCSC1)N2 (stereo not given)	52.2	64 (≈ 150 µM)	128 (≈ 300 µM)	128 (≈ 300 µM)	128 (≈ 300 µM)	653	
O=C(/C=C/C(=O)Nc1ccc2c(c1)C(=O)NC1(CCSC1)N2)Nc1ccc(Cl)cc1 (stereo not given)	58	64 (≈ 144 µM)	128 (≈ 289 µM)	64 (≈ 144 µM)	64 (≈ 144 µM)	433	
O=C(/C=C/C(=O)Nc1ccc2c(c1)C(=O)NC1(CCSC1)N2)Nc1cccc(C(F)(F)F)c1 (stereo not given)	58.1	128 (≈ 269 µM)	64 (≈ 134 µM)	64 (≈ 134 µM)	64 (≈ 134 µM)	353	
O=C(/C=C/C(=O)Nc1ccc2c(c1)C(=O)NC1(CCCC1)N2)Nc1ccc(F)c(Cl)c1	48.2	128 (≈ 289 µM)	128 (≈ 289 µM)	128 (≈ 289 µM)	128 (≈ 289 µM)		
O=C(/C=C/C(=O)Nc1ccc2c(c1)C(=O)NC1(CCOC1)N2)Nc1ccc(Br)cc1 (stereo not given)	63.1	32 (≈ 67.9 µM)	64 (≈ 136 µM)	64 (≈ 136 µM)	32 (≈ 67.9 µM)		
O=C(/C=C/C(=O)Nc1ccccc1Cl)Nc1ccc2c(c1)C(=O)NC1(CCSC1)N2 (stereo not given)	58.4	32 (≈ 72.2 µM)	64 (≈ 144 µM)	64 (≈ 144 µM)	64 (≈ 144 µM)	420	
O=C(/C=C/C(=O)Nc1ccccc1Cl)Nc1ccc2c(c1)C(=O)NC1(CCOC1)N2 (stereo not given)	53.7	128 (≈ 300 µM)	128 (≈ 300 µM)	64 (≈ 150 µM)	128 (≈ 300 µM)		
Cc1ccc(NC(=O)/C=C/C(=O)Nc2ccc3c(c2)C(=O)NC2(CCSC2)N3)cc1 (stereo not given)	48.2	64 (≈ 151 µM)	128 (≈ 303 µM)	128 (≈ 303 µM)	128 (≈ 303 µM)	883	
CCCCCOc1ccc(-c2cc(-c3ccc(C(=O)N[C@H]4C[C@@H](O)[C@@H](O)NC(=O)[C@@H]5[C@@H](O)[C@@H](C)CN5C(=O)[C@H]([C@H](O)CC(N)=O)NC(=O)[C@H]([C@H](O)[C@@H](O)c5ccc(O)c(OS(=O)(=O)O)c5)NC(=O)[C@@H]5C[C@@H](O)CN5C(=O)[C@H]([C@@H](C)O)NC4=O)cc3)no2)cc1 [MICAFUNGIN] (X1-[Orn(4R-OH,5R-OH)]T[Hyp][hTyr(3S-OH,4S-OH,3'-OSO3H)][Gln(3R-OH)][Pro(3S-OH,4S-Me)]; lactam 1-C)							MIC [25]: 256 µg/mL (≈ 202 µM)
O=C(/C=C/C(=O)Nc1ccc2c(c1)C(=O)NC1(CCSC1)N2)Nc1cccc(Cl)c1 (stereo not given)	60.9	32 (≈ 72.2 µM)	64 (≈ 144 µM)	32 (≈ 72.2 µM)	64 (≈ 144 µM)	282	
O=C(/C=C/C(=O)Nc1ccc2c(c1)C(=O)NC1(CCSC1)N2)Nc1ccc(F)c(Cl)c1 (stereo not given)	64.4	16 (≈ 34.7 µM)	32 (≈ 69.4 µM)	64 (≈ 139 µM)	32 (≈ 69.4 µM)	267	
O=C(/C=C/C(=O)Nc1ccc2c(c1)C(=O)NC1(CCSC1)N2)Nc1ccc(F)cc1 (stereo not given)	54.6	64 (≈ 150 µM)	128 (≈ 300 µM)	128 (≈ 300 µM)	64 (≈ 150 µM)	593	

— ChEMBL document CHEMBL5365394, “Design, synthesis and biological evaluation of novel spiro-quinazolinone derivatives as chitin synthase inhibitors and antifungal agents” (Eur J Med Chem, 2023)
